Measured values from patent US20190343801A1, “COMPOSITIONS AND METHODS FOR CONTROLLING NATURAL KILLER CELL ACTIVATION AND FUNCTION” (BAR ILAN UNIVERSITY, priority 2017, published 2019).
Values belong to the molecule of their own block, whether it stands above or below them. Where no end group is shown, it is not given here.

What was measured:
[1] = tested on: myosin superfamily members from classes I, V, and X; conditions: cited from earlier work
smooth muscle = conditions: cited from earlier work
SHP-1: β-actin complex = experiment: SHP-1 immunoprecipitation and anti-β-actin immunoblotting in YTS-2DL1 cells incubated with target cells; assay type: cell-based; conditions: inhibitory 221-Cw4 cells; 0.5 μM CytD
Procedure: YTS-2DL1 cells were incubated at 37° C. with 221-Cw4 or Cw7 cells for 5 min, 1 μM of JAS was added, and cells were incubated for 5 min. Cell lysates were subjected to IP of SHP-1 and IB with anti-β-actin or anti-SHP-1 antibodies. Shown data represent at least three independent experiments.
In FIG. 8D, YTS-2DL1 cells were incubated at 37° C. with 221-Cw4 or Cw7 cells for 5 min, 0.5 μM of CytD was added, and the cells were incubated for an additional 5 min. The cells were lysed, and IPs of SHP-1 were subjected to IB using anti-β-actin or anti-SHP-1. Results shown are representative of three independent experiments.
NK cells (primary or YTS) and ‘221’ target cells (either expressing HLA-Cw4, Cw7 or no HLA) were first incubated separately on ice for 10 min, at a ratio of 1:1. The cells were then mixed, centrifuged and kept on ice for 15 min. The cell mixture was then transferred to 37° C., for the indicated period of time, and subsequently lysed with ice-cold lysis buffer.
For analysis of whole cell lysates, 1-10×10^5 cells were used, and for IP experiments, 10-15×10^6 cells were used. Protein A/G plus-Agarose beads (Santa Cruz Biotechnology) were used for IP. […] Immunoreactive proteins were detected with either anti-mouse or anti-rabbit horseradish peroxidase-coupled secondary antibody followed by detection by enhanced chemiluminescence (PerkinElmer).

[2] = tested on: F-actin retrograde flow in YTS and pNK F-tractin GFP cells; experiment: Live cell imaging and kymograph analysis of F-actin retrograde flow (ARF) in F-tractin GFP NK cells; assay type: cell-based; conditions: 0.5 μM CytD, anti-CD28 or anti-KIR2DL1
From the text: FIGS. […] In FIG. 5A, YTS F-tractin GFP cells were dropped over coverslips coated with anti-CD28 or anti-KIR1 antibodies, and imaged at 1 frame/sec through a single focal plane. […] Representative images are shown. Kymographs of F-actin dynamics were compiled along the contact site radius. […]
The y axis represents F-actin velocity (μm/sec), and the x axis—time from initial spreading (sec).
FIGS. 5E-5H. show analyses of NKIS area and ARF in the activating vs. inhibitory NKIS in the presence of Y-27632 (Y-27) inhibitor of myosin light chain (MLC) phosphorylation and/or JAS. […] NKIS area was determined using ImageJ. […]
Analyses of actin and SHP-1 dynamics were performed by preparing kymographs from live cell videos and tracing the movement of the fluorescently tagged proteins. […] Velocity over distance from the center was determined by calculating the velocity of the tracked protein based on the distance traversed to time between each two points on the trace, and noting the relative location from the center of the measured area. […] For each bin, average velocity and standard error were calculated. Average distance traversed over time was calculated by measuring the location of the trace, relative to its point of origin at each time point after the beginning of the trace. For each relative time point from the beginning of a trace, an average distance and standard error were calculated. […]

SHP-1 [3] = experiment: PTP assay: SHP-1 catalytic activity (pNPP hydrolysis) after treatment of NK-target cell conjugates; assay type: cell-based; conditions: YTS-2DL1 + 221-Cw4, untreated 100%; 0.5 μM CytD
Procedure: YTS-2DL1 cells were pretreated with 25 μM Y-27 or left untreated. Cells were incubated at 37° C. with target cells for 5 min, 1 μM of JAS was added, and samples were incubated for 5 minutes before lysis. IP of SHP-1 was performed, and precipitates were incubated with pNpp. SHP-1 activity was determined by measuring absorbance at 405 nm. The graph represents rates of SHP-1 catalytic activity from three independent experiments.
In FIG. 8E, YTS-2DL1 cells were incubated at 37° C. with 221-Cw4 or Cw7 cells for 5 min, treated with 0.5 μM of CytD or left untreated, and SHP-1 activity was determined as detailed in the Materials and Methods. Graph summarizing percent of relative SHP-1 catalytic activity obtained by four independent experiments. Data are means±SEM.
SHP-1 catalytic activity was determined by measuring the hydrolysis of the exogenous substrate p-Nitrophenyl Phosphate (pNPP) by SHP-1, as previously described. NK cells (2-5×10^6) were incubated with target cells at ratio of 1:1, activated as described above, and lysed with passive ice-cold lysis buffer (1% Brij, 1% n-Octyl-b-D-glucoside, 50 mM Tris-HCl, pH 7.4, 150 mM NaCl, 5 mM ethylenediaminetetraacetic acid, and complete protease inhibitor tablets). Cell lysates were subjected to IP with anti-SHP-1 antibody. […] Reactions were terminated by adding 800 μl 1M NaOH, and SHP-1 activity was determined by measuring absorbance at 405 nm.

SHP-1 [4] = target: T1, SHP-1 (Homo sapiens, UniProt P29350); experiment: MST analysis for the binding of YFP-SHP-1 and actin-derived peptides; conditions: for binding to SHP-1: lysates of HEK 293T cells expressing YFP-SHP-1, peptides 400 μM-48 nM
T1 construct: expressed in transfected cells; host or cells: HEK 293T cells, unpurified lysate
From the text: Binding curves were generated by the NanoTemper analysis software (MO.Affinity Analysis v2.1.3). The graph summarizes the changes of the fluorescent thermophoresis signals as a function of peptide concentration from at least three independent experiments. Data are means±SD.
YFP-tagged SHP-1 was obtained from cell lysates of Human Embryonic Kidney (HEK) 293T cells, transiently transfected with YFP-SHP-1 by DNA-calcium phosphate co-precipitation, as previously described (Reicher B, et al (2012) Molecular and cellular biology 15: 3153-3163). MST measurements were performed using the protein purification-free method described by Khavrutskii et al. (Khavrutskii L, et al (2013) Journal of visualized experiments: JoVE). Briefly, each peptide (Synpeptide) was initially dissolved in Dimethylformamide (DMF), diluted in DDW (supplemented with 1 mM DTT) to reach stock concentration of 80004, and serially diluted (range from 400 μM to 48.8 nM) in HEPES buffer (50 mM, supplemented with 0.05% Tween-20 and 1 mM DTT) in 200 μL PCR-tubes. Then, YFP-SHP-1-containing cell lysate was added to the serially diluted tubes at a 1:1 ratio and the samples were gently mixed. The samples were allowed to incubate at room temperature for 30 min before being loaded into standard-treated Monolith™ capillaries (NanoTemper). After loading into the instrument (Monolith NT.115, NanoTemper), microthermophoresis was carried out using 40% LED power and 40% MST power. The changes of the fluorescent thermophoresis signals were plotted against the concentration of the serially diluted peptides. KD values were determined using the NanoTemper analysis software (MO.Affinity Analysis v2.1.3).
The SHP-1-β-actin complex formation was also examined using microscale thermophoresis (MST) technology. […] Lysates of HEK 293T cells transiently expressing YFP-SHP-1 were incubated with decreasing concentrations of the different peptides followed by MST analysis.

CFP-actin [5] = target: CFP-actin (UniProt P60709); experiment: FRET between YFP-SHP-1 and CFP-actin in YTS cells at the inhibitory NKIS (221-Cw4 target cells)
CFP-actin [6] = target: CFP-actin (UniProt P60709); experiment: FRET between YFP-SHP-1 and CFP-actin in YTS cells at the activating NKIS (221-Cw7 target cells)
[7] = target: YFP-SHP-1 (human SHP-1 wt tagged with YFP) (human) (UniProt P29350); experiment: MST, peptide titrated into lysate of HEK 293T cells expressing YFP-SHP-1
[8] = target: YFP-SHP-1 (human SHP-1 wt tagged with YFP) (human) (UniProt P29350); experiment: MST, lysate of 293T cells expressing YFP-SHP-1 with serially diluted peptide

T1 sequence (P29350 whole entry): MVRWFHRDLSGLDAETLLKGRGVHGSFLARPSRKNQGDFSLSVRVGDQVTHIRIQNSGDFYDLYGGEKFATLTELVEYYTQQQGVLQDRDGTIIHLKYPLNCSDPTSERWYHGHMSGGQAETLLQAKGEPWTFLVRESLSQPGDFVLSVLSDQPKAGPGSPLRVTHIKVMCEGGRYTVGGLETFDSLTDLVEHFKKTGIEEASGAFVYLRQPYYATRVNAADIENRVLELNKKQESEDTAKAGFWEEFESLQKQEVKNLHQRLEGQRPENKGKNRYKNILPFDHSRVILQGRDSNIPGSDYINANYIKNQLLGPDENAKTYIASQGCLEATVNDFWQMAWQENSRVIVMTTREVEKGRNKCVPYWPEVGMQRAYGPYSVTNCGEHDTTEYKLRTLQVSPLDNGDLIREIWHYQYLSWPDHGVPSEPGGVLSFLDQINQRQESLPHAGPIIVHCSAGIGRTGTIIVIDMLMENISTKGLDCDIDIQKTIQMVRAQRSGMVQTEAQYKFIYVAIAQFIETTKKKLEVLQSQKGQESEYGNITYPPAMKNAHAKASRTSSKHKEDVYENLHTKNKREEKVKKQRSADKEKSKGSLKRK

Molecule: Cc1ccc2c(c1)C(=O)C1(O)CCN(c3ccccc3)C1=N2 (stereo not drawn) [Blebbistatin]
- inhibition [1]: does not inhibit
- IC50 (smooth muscle): 80 µM

Molecule: C=C1[C@@H](C)[C@H]2C(Cc3ccccc3)NC(=O)[C@]23[C@H](OC(C)=O)/C=C/[C@@](C)(O)C(=O)[C@@H](C)C/C=C/[C@H]3[C@@H]1O (stereo partly drawn) [CytD, Cytochalasin D]
- SHP-1 binding to β-actin (SHP-1: β-actin complex): increased binding of SHP-1 to β-actin
- ARF velocity at the LP [2]: significant reduction in ARF velocity
- relative SHP-1 catalytic activity (SHP-1 [3]): 55.4±8.4%

Molecule: EYQKASGVSG (irrelevant control peptide)
- binding to SHP-1 (SHP-1 [4]): no binding was detected

Molecule: KEKLCFVALDF (mutant actin peptide) [Y-F mutant, single aa mutant form of the β-actin peptide, tyrosine to phenylalanine substitution]
- binding to SHP-1 (SHP-1 [4]): no binding was detected

Molecule: KEKLCYVALDF [WT actin peptide, KEKLCYVALDF]
- Kd (SHP-1 [4]): 39.5 ± 6.2 µM

- FRET efficiency (CFP-actin [5]): 18.9%
- FRET efficiency (CFP-actin [6]): 8.5%
Molecule: YFP-SHP-1 (human SHP-1 wt tagged with YFP) (from UniProt P29350 1-595) (enzyme)

- Kd [7]: 39.5 µM
- EC50 (read off the curve) [8]: 40 µM
B1: WT β-actin derived peptide containing an ITIM motif (…) (peptide)
peptide: KEKLCYVALDF
